Experimental data: US11427549B2, “Pyrimidinyloxy benzo-fused compounds as herbicides” (FMC Corporation, priority 2017, dated 2022)

What was measured:
[1] = system: barnyardgrass (Echinochloa crus-galli); assay: Test A preemergence, barnyardgrass; format: in vivo; settings: Echinochloa crus-galli, pre-emergence, 240 h, 0 to 100 scale (0 no effect, 100 complete control), read-out: Plant response rating, Barnyardgrass; for pest or weed control at 31 g/ha: 31 g ai/ha; for pest or weed control at 125 g/ha: 125 g ai/ha
kochia (Kochia scoparia) [2] = assay: Test A preemergence, kochia; format: in vivo; settings: Bassia scoparia, pre-emergence, 240 h, 0 to 100 scale (0 no effect, 100 complete control), read-out: Plant response rating, Kochia; for pest or weed control at 31 g/ha: 31 g ai/ha; for pest or weed control at 125 g/ha: 125 g ai/ha
[3] = system: ragweed (common ragweed, Ambrosia elatior); assay: Test A preemergence, ragweed; format: in vivo; settings: Ambrosia artemisiifolia, pre-emergence, 240 h, 0 to 100 scale (0 no effect, 100 complete control), read-out: Plant response rating, Ragweed; for pest or weed control at 31 g/ha: 31 g ai/ha; for pest or weed control at 125 g/ha: 125 g ai/ha
[4] = system: ryegrass, Italian (Italian ryegrass, Lolium multiflorum); assay: Test A preemergence, ryegrass, Italian; format: in vivo; settings: Lolium multiflorum, pre-emergence, 240 h, 0 to 100 scale (0 no effect, 100 complete control), read-out: Plant response rating, Ryegrass, Italian; for pest or weed control at 31 g/ha: 31 g ai/ha; for pest or weed control at 125 g/ha: 125 g ai/ha
[5] = system: foxtail, green (green foxtail, Setaria viridis); assay: Test A preemergence, foxtail, green; format: in vivo; settings: Setaria, pre-emergence, 240 h, 0 to 100 scale (0 no effect, 100 complete control), read-out: Plant response rating, Foxtail, Green; for pest or weed control at 31 g/ha: 31 g ai/ha; for pest or weed control at 125 g/ha: 125 g ai/ha
[6] = system: pigweed (Amaranthus retroflexus); assay: Test A preemergence, pigweed; format: in vivo; settings: Amaranthus retroflexus, pre-emergence, 240 h, 0 to 100 scale (0 no effect, 100 complete control), read-out: Plant response rating, Pigweed; for pest or weed control at 31 g/ha: 31 g ai/ha; for pest or weed control at 125 g/ha: 125 g ai/ha
[7] = system: barnyardgrass (Echinochloa crus-galli); assay: Test A postemergence, barnyardgrass; format: in vivo; settings: Echinochloa crus-galli, post-emergence, 240 h, 0 to 100 scale (0 no effect, 100 complete control), read-out: Plant response rating, Barnyardgrass; for pest or weed control at 31 g/ha: 31 g ai/ha; for pest or weed control at 125 g/ha: 125 g ai/ha
kochia (Kochia scoparia) [8] = assay: Test A postemergence, kochia; format: in vivo; settings: Bassia scoparia, post-emergence, 240 h, 0 to 100 scale (0 no effect, 100 complete control), read-out: Plant response rating, Kochia; for pest or weed control at 31 g/ha: 31 g ai/ha; for pest or weed control at 125 g/ha: 125 g ai/ha
[9] = system: ragweed (common ragweed, Ambrosia elatior); assay: Test A postemergence, ragweed; format: in vivo; settings: Ambrosia artemisiifolia, post-emergence, 240 h, 0 to 100 scale (0 no effect, 100 complete control), read-out: Plant response rating, Ragweed; for pest or weed control at 31 g/ha: 31 g ai/ha; for pest or weed control at 125 g/ha: 125 g ai/ha
[10] = system: ryegrass, Italian (Italian ryegrass, Lolium multiflorum); assay: Test A postemergence, ryegrass, Italian; format: in vivo; settings: Lolium multiflorum, post-emergence, 240 h, 0 to 100 scale (0 no effect, 100 complete control), read-out: Plant response rating, Ryegrass, Italian; for pest or weed control at 31 g/ha: 31 g ai/ha; for pest or weed control at 125 g/ha: 125 g ai/ha
[11] = system: pigweed (Amaranthus retroflexus); assay: Test A postemergence, pigweed; format: in vivo; settings: Amaranthus retroflexus, post-emergence, 240 h, 0 to 100 scale (0 no effect, 100 complete control), read-out: Plant response rating, Pigweed; for pest or weed control at 31 g/ha: 31 g ai/ha; for pest or weed control at 125 g/ha: 125 g ai/ha
[12] = system: wheat (Triticum aestivum); assay: Test A postemergence, wheat; format: in vivo; settings: Triticum aestivum, post-emergence, 240 h, 0 to 100 scale (0 no effect, 100 complete control), read-out: Plant response rating, Wheat; for plant injury at 31 g/ha: 31 g ai/ha; for plant injury at 125 g/ha: 125 g ai/ha
corn (Zea mays) = assay: Test A postemergence, corn; format: in vivo; settings: Zea mays, post-emergence, 240 h, 0 to 100 scale (0 no effect, 100 complete control); for Corn plant response rating (crop injury, 0 = no effect, 100 = complete kill) at 31 g/ha: 31 g ai/ha; for Corn plant response rating (crop injury, 0 = no effect, 100 = complete kill) at 125 g/ha: 125 g ai/ha
[13] = system: blackgrass (Alopecurus myosuroides); assay: Test A postemergence, blackgrass; format: in vivo; settings: Alopecurus myosuroides, post-emergence, 240 h, 0 to 100 scale (0 no effect, 100 complete control), read-out: Plant response rating, Blackgrass; for pest or weed control at 31 g/ha: 31 g ai/ha; for pest or weed control at 125 g/ha: 125 g ai/ha
[14] = system: galium (catchweed bedstraw, Galium aparine); assay: Test A postemergence, galium; format: in vivo; settings: Galium, post-emergence, 240 h, 0 to 100 scale (0 no effect, 100 complete control), read-out: Plant response rating, Galium; for pest or weed control at 31 g/ha: 31 g ai/ha; for pest or weed control at 125 g/ha: 125 g ai/ha
rice (Oryza sativa) = assay: Test B flooded paddy test, rice; settings: Oryza sativa, read-out: Plant response rating, Rice (0 to 100 scale, 0 is no effect, 100 is complete control)
[15] = system: ducksalad (Heteranthera limosa); assay: Test B flooded paddy test, ducksalad; settings: Heteranthera limosa, read-out: Plant response rating, Ducksalad (0 to 100 scale, 0 is no effect, 100 is complete control)
[16] = system: barnyardgrass (Echinochloa crus-galli); assay: Test B flooded paddy test, barnyardgrass; settings: Echinochloa crus-galli, read-out: Plant response rating, Barnyardgrass (0 to 100 scale, 0 is no effect, 100 is complete control)

SMILES	pest or weed control at 31 g/ha [1]	pest or weed control at 125 g/ha [1]	pest or weed control at 31 g/ha (kochia (Kochia scoparia) [2])	pest or weed control at 125 g/ha (kochia (Kochia scoparia) [2])	pest or weed control at 31 g/ha [3]	pest or weed control at 125 g/ha [3]	pest or weed control at 31 g/ha [4]	pest or weed control at 125 g/ha [4]	pest or weed control at 31 g/ha [5]	pest or weed control at 125 g/ha [5]	pest or weed control at 31 g/ha [6]	pest or weed control at 125 g/ha [6]	pest or weed control at 31 g/ha [7]	pest or weed control at 125 g/ha [7]	pest or weed control at 31 g/ha (kochia (Kochia scoparia) [8])	pest or weed control at 125 g/ha (kochia (Kochia scoparia) [8])	pest or weed control at 31 g/ha [9]	pest or weed control at 125 g/ha [9]	pest or weed control at 31 g/ha [10]	pest or weed control at 125 g/ha [10]	other results
FC(F)(F)CCCC1CCc2cccc(Oc3ncc(Cl)cn3)c21 (stereo not drawn) [Compound 9, 5-Chloro-2-[[2,3-dihydro-3-(4,4,4-trifluorobutyl)-1H-inden-4-yl]oxy]pyrimidine]	10%	90%	10%	50%	0%	10%	10%	50%	70%	100%	10%	100%	20%	50%	50%	80%	0%	10%	10%	30%	pest or weed control at 31 g/ha [11]: 80%; pest or weed control at 125 g/ha [11]: 100%; plant injury at 31 g/ha [12]: 10%; plant injury at 125 g/ha [12]: 20%; Corn plant response rating (crop injury, 0 = no effect, 100 = complete kill) at 31 g/ha (corn (Zea mays)): 20%; Corn plant response rating (crop injury, 0 = no effect, 100 = complete kill) at 125 g/ha (corn (Zea mays)): 30%; pest or weed control at 31 g/ha [13]: 20%; pest or weed control at 125 g/ha [13]: 80%; pest or weed control at 31 g/ha [14]: 20%; pest or weed control at 125 g/ha [14]: 30%; plant injury at 250 g/ha (rice (Oryza sativa)): 50%; pest or weed control at 250 g/ha [15]: 100%; pest or weed control at 250 g/ha [16]: 70%
OC1CC(CCCC(F)(F)F)c2c(Oc3ncc(Cl)cn3)cccc21 (stereo not drawn) [Compound 10, 4-[(5-Chloro-2-pyrimidinyl)oxy]-2,3-dihydro-3-(4,4,4-trifluorobutyl)-1H-inden-1-ol]	10%	70%	0%	30%	0%	0%	10%	30%	60%	90%	100%	100%	10%	40%	10%	60%	0%	10%	0%	30%	pest or weed control at 31 g/ha [11]: 50%; pest or weed control at 125 g/ha [11]: 90%; plant injury at 31 g/ha [12]: 0%; plant injury at 125 g/ha [12]: 10%; Corn plant response rating (crop injury, 0 = no effect, 100 = complete kill) at 31 g/ha (corn (Zea mays)): 10%; Corn plant response rating (crop injury, 0 = no effect, 100 = complete kill) at 125 g/ha (corn (Zea mays)): 30%; pest or weed control at 31 g/ha [13]: 10%; pest or weed control at 125 g/ha [13]: 20%; pest or weed control at 31 g/ha [14]: 10%; pest or weed control at 125 g/ha [14]: 20%; plant injury at 250 g/ha (rice (Oryza sativa)): 25%; pest or weed control at 250 g/ha [15]: 95%; pest or weed control at 250 g/ha [16]: 45%
CN1C(=O)c2cccc(Oc3ncc(Cl)cn3)c2C1CCCC(F)(F)F (stereo not drawn) [Compound 12, 4-[(5-Chloro-2-pyrimidinyl)oxy]-2,3-dihydro-2-methyl-3-(4,4,4-trifluorobutyl)-1H-isoindol-1-one]	0%	0%	0%	0%	0%	0%	0%	0%	0%	0%	0%	0%	0%	0%	0%	10%	0%	20%	0%	0%	pest or weed control at 31 g/ha [11]: 0%; pest or weed control at 125 g/ha [11]: 30%; plant injury at 31 g/ha [12]: 0%; plant injury at 125 g/ha [12]: 0%; Corn plant response rating (crop injury, 0 = no effect, 100 = complete kill) at 31 g/ha (corn (Zea mays)): 0%; Corn plant response rating (crop injury, 0 = no effect, 100 = complete kill) at 125 g/ha (corn (Zea mays)): 10%; pest or weed control at 31 g/ha [13]: 0%; pest or weed control at 125 g/ha [13]: 0%; pest or weed control at 31 g/ha [14]: 0%; pest or weed control at 125 g/ha [14]: 10%; plant injury at 250 g/ha (rice (Oryza sativa)): 0%; pest or weed control at 250 g/ha [15]: 0%; pest or weed control at 250 g/ha [16]: 0%
